This passage reports IC50 and Ki results from ChEMBL document CHEMBL1909046, “DrugMatrix in vitro pharmacology data”.

The structures appear in SMILES notation.

For data set [1], the target named is T1, C-X-C chemokine receptor type 2 (Homo sapiens, UniProt P25025). Note: in other assays of this panel Not Active means under 50% inhibition at 10 µM.
T1 sequence (P25025 whole entry): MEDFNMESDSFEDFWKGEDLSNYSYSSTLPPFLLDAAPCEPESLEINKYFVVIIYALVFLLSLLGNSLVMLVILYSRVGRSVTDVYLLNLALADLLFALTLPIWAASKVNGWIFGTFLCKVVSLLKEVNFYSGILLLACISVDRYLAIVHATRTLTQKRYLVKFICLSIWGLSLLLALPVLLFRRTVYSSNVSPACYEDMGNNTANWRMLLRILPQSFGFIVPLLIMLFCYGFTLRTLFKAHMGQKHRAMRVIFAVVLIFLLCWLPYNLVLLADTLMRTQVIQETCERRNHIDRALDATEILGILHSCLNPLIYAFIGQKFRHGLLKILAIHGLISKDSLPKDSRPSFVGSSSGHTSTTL
The format is cell membranes, Membrane. The settings on record: cho-k1.

For data set [2], the target named is T2, Polyunsaturated fatty acid lipoxygenase ALOX15 (Oryctolagus cuniculus, UniProt P12530).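 Note: inhibition of 15-lipoxygenase enzyme activity measured with linoleic acid as the substrate; in other assays of this panel Not Active means under 50% inhibition at 10 µM.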
T2 sequence (P12530 whole entry): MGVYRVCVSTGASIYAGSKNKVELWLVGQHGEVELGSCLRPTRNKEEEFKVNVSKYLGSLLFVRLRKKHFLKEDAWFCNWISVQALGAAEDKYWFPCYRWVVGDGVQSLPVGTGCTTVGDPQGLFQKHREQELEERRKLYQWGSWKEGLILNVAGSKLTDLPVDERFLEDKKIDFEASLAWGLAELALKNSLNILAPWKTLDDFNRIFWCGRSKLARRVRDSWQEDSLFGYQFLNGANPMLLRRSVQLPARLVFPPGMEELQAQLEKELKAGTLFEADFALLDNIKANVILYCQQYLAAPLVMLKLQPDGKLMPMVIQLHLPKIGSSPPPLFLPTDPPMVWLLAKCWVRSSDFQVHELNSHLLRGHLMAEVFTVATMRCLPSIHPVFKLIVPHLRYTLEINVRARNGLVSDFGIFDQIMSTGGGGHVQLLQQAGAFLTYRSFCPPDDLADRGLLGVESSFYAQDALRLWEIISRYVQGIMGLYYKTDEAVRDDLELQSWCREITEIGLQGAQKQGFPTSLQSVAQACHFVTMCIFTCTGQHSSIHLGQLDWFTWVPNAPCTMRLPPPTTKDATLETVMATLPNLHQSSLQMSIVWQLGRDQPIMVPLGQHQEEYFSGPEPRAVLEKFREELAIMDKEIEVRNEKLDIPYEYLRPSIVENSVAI
In words: biochemical. The format is tissue-based, Reticulocytes. Conditions: reticulocytes.

Data set [3] addresses 5-hydroxytryptamine receptor 2B (Homo sapiens, UniProt P41595). It counts as cell membranes, CHO-K1, Membrane.
Another data set deals with D(1A) dopamine receptor (Homo sapiens, UniProt P21728). In words: DRUGMATRIX: Dopamine D1 radioligand binding (ligand: [3H] SCH-23390). It counts as cell membranes, CHO, Membrane. Conditions: Not Active = under 50% inhibition at 10 µM.
Data set [4] is described as follows: DRUGMATRIX: GABAA, Chloride Channel, TBOB radioligand binding (ligand: [3H] TBOB). It counts as cell membranes, Rattus norvegicus, Wistar, Cerebral cortex, Membrane. The settings on record: Not Active = under 50% inhibition at 10 µM.
The target in a further data set is T3, Adenosine receptor A3 (Homo sapiens, UniProt P0DMS8).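 Note: radioligand binding assay with AB-MECA serving as the labeled ligand; in other assays of this panel Not Active means under 50% inhibition at 10 µM.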
T3 sequence (P0DMS8 whole entry): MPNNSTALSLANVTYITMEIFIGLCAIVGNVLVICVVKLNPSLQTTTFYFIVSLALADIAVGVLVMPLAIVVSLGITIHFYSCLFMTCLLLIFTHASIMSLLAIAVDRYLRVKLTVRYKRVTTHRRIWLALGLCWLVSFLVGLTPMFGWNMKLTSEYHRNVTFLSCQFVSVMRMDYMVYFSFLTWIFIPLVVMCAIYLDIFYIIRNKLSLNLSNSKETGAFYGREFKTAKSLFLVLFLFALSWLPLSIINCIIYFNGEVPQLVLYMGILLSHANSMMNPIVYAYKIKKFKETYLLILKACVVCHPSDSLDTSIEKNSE
It counts as cell membranes, CHO-K1, Membrane. The settings on record: cho-k1.

A further data set deals with Histamine H2 receptor (Homo sapiens, UniProt P25021). It counts as cell membranes, CHO-K1, Membrane. The settings on record: cho-k1.
The target in data set [5] is Beta-3 adrenergic receptor (Homo sapiens, UniProt P13945). Description: DRUGMATRIX: Adrenergic beta3 radioligand binding (ligand: [125I] Cyanopindolol). The settings on record: hek293; Not Active = under 50% inhibition at 10 µM. The format is cell membranes, HEK293, Membrane.
Data set [6] is described as follows: DRUGMATRIX: Calcium Channel Type L, Benzothiazepine radioligand binding (ligand: [3H] Diltiazem). Conditions: Not Active = under 50% inhibition at 10 µM. It counts as cell membranes, Rattus norvegicus, Wistar, Brain, Membrane.
The target in data set [7] is 5-hydroxytryptamine receptor 6 (Homo sapiens, UniProt P50406). The format is cell membranes, HeLa, Membrane. Note: in other assays of this panel Not Active means under 50% inhibition at 10 µM.
Another data set deals with Cytochrome P450 2D6 (Homo sapiens, UniProt P10635). The settings on record: bti-tn-5b1-4.
Data set [8] concerns the target T4, Alpha-1B adrenergic receptor (Rattus norvegicus, UniProt P15823).
T4 sequence (P15823 whole entry): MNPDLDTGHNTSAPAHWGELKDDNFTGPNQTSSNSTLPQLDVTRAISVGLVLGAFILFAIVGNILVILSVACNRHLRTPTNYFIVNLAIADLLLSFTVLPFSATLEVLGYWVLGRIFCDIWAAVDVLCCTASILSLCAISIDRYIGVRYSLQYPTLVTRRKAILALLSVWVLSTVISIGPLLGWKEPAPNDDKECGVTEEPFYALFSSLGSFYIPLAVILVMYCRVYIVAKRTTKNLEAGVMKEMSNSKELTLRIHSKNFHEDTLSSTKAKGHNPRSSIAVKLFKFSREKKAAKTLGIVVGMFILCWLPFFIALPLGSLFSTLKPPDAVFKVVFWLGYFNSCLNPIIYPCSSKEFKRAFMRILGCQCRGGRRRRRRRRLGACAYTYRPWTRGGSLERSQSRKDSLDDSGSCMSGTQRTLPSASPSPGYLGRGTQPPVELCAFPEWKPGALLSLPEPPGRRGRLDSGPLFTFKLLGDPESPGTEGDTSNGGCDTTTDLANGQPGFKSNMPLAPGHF
Description: DRUGMATRIX: Alpha-1B adrenergic receptor radioligand binding (ligand: prazosin). The format is cell membranes, Wistar, Liver, Membrane. Conditions: Not Active = under 50% inhibition at 10 µM.

Another data set concerns the target Cytochrome P450 2E1 (Homo sapiens, UniProt P05181). The settings on record: bti-tn-5b1-4. Note: in other assays of this panel Not Active means under 50% inhibition at 10 µM.

Chain of 5-hydroxytryptamine receptor 2B (P41595 whole entry): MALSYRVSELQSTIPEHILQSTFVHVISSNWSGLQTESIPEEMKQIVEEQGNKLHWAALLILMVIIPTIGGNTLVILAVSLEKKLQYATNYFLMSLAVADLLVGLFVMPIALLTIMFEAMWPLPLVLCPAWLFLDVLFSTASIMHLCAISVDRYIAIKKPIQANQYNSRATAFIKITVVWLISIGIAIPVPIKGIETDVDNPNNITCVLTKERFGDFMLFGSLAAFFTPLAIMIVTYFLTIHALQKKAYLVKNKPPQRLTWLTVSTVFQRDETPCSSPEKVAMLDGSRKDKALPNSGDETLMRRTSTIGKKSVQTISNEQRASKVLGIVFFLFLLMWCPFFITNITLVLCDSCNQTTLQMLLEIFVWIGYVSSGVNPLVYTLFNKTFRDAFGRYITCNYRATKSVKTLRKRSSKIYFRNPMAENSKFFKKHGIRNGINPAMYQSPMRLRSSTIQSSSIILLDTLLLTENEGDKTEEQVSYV
Chain of Beta-3 adrenergic receptor (P13945 whole entry): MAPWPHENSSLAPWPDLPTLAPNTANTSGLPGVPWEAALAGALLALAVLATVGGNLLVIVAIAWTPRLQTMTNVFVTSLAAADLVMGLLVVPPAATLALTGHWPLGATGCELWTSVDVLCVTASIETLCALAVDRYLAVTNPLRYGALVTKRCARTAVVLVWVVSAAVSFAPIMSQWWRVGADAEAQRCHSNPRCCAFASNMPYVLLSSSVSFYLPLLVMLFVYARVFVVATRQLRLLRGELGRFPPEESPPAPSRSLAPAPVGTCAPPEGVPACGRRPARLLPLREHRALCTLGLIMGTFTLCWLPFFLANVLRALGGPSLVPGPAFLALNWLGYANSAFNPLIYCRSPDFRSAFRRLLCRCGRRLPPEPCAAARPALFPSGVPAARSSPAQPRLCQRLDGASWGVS
Chain of Cytochrome P450 2D6 (P10635 whole entry): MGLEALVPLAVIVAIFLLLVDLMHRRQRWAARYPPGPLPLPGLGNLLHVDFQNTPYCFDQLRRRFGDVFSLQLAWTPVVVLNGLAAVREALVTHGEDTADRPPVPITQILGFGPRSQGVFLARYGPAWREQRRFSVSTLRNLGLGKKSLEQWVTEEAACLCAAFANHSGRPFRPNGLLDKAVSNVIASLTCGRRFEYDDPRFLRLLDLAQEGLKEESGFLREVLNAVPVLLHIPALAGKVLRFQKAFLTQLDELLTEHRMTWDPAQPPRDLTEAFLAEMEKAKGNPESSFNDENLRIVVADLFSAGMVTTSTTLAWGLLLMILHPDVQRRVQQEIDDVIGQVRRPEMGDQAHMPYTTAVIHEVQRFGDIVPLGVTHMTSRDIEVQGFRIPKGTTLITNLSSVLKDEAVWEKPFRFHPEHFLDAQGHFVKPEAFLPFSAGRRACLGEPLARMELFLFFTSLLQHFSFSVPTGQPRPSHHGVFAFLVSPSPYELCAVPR
Chain of D(1A) dopamine receptor (P21728 whole entry): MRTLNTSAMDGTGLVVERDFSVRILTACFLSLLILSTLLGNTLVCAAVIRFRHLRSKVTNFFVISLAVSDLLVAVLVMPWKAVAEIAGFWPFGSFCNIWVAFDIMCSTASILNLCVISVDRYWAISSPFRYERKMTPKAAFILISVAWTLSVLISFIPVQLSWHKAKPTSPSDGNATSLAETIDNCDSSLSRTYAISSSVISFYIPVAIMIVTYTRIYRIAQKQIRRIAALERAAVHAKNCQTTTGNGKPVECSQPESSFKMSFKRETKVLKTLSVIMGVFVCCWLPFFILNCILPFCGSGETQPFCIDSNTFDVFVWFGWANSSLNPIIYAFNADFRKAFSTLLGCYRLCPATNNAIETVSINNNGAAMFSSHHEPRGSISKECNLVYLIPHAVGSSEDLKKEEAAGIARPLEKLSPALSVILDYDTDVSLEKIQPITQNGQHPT
Chain of Cytochrome P450 2E1 (P05181 whole entry): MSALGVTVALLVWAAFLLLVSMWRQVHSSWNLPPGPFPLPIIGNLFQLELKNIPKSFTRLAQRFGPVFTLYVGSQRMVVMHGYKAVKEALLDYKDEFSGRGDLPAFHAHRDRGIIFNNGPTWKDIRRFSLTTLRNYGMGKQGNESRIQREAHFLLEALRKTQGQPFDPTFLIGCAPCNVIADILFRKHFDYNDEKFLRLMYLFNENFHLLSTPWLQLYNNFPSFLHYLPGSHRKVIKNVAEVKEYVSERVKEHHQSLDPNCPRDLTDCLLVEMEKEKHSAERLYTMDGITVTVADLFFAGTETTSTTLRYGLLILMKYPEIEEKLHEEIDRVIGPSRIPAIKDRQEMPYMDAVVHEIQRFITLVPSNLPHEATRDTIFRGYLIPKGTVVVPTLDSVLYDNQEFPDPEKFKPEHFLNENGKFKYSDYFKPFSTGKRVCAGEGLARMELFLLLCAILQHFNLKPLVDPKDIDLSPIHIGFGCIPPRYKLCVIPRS
Chain of 5-hydroxytryptamine receptor 6 (P50406 whole entry): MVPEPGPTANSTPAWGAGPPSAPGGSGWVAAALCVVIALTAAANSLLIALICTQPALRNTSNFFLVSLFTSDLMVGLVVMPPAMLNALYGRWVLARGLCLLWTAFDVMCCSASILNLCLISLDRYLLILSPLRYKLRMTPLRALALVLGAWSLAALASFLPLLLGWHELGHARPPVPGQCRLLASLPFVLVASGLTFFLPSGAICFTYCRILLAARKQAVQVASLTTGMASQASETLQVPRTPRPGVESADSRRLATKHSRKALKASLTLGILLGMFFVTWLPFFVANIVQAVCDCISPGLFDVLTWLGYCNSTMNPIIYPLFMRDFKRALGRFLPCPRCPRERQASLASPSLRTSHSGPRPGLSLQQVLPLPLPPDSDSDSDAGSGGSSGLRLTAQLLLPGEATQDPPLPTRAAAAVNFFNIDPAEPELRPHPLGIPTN
Chain of Histamine H2 receptor (P25021 whole entry): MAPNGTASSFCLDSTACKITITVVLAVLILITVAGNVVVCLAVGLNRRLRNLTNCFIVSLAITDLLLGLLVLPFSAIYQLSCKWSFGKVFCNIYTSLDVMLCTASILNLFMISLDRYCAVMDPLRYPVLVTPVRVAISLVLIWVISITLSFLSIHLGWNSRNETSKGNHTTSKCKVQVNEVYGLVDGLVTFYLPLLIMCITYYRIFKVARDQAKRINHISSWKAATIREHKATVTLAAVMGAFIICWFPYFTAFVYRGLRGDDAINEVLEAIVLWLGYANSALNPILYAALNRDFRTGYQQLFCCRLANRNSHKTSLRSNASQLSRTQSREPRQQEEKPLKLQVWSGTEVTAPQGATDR

For the compound `Cn1cnc([N+](=O)[O-])c1Sc1ncnc2nc[nH]c12` [AZATHIOPRINE], the IC50 entry (in data set [1]; in [2]; in data set [3] (cho-k1); on D(1A) dopamine receptor (cho); in data set [4]; against Adenosine receptor A3) was “Not Active” in each case. The IC50 result (against Histamine H2 receptor; in [5]; in [6]; in [7] (hela); at Cytochrome P450 2D6; in data set [8]) was “Not Active” each time. The 50% inhibitory concentration (IC50) entry against Cytochrome P450 2E1 was “Not Active”. For the same compound, the inhibition constant (Ki) entry (in data set [4]; in data set [6]; at Cytochrome P450 2D6; at Cytochrome P450 2E1) was “Not Active” each time.

As for `CC(/C=C1\SC(=S)N(CC(=O)O)C1=O)=C\c1ccccc1`, the half-maximal inhibitory concentration (IC50) result (in [1]; in [2]; in data set [3] (cho-k1); on D(1A) dopamine receptor (cho); in data set [4]; against Adenosine receptor A3) was “Not Active” in each case. For the same compound, the IC50 entry (against Histamine H2 receptor; in [5]; in [6]; in data set [7] (hela); against Cytochrome P450 2D6; in [8]) was “Not Active” throughout. The concentration for half-maximal inhibition (IC50) entry against Cytochrome P450 2E1 is recorded as “Not Active”. The Ki result (in [4]; in data set [6]; at Cytochrome P450 2D6; on Cytochrome P450 2E1) was “Not Active” each time.

`N=C(N)NCCCCNC(=N)N.O=S(=O)(O)O` [ARCAINE SULFATE]: the IC50 entry (in [1]; in data set [2]; in [3] (cho-k1); on D(1A) dopamine receptor (cho); in data set [4]; on Adenosine receptor A3) was “Not Active” throughout. In addition, the 50% inhibitory concentration (IC50) entry (against Histamine H2 receptor; in [5]; in data set [6]; in [7] (hela); against Cytochrome P450 2D6; in [8]) was “Not Active” in each case. The IC50 result at Cytochrome P450 2E1 is recorded as “Not Active”. Besides, the Ki entry (in data set [4]; in data set [6]; on Cytochrome P450 2D6; on Cytochrome P450 2E1) was “Not Active” each time.

For the compound `CC1(C)[C@@H](O[C@H]2O[C@H](C(=O)O)[C@@H](O)[C@H](O)[C@H]2O[C@@H]2O[C@H](C(=O)O)[C@@H](O)[C@H](O)[C@H]2O)CC[C@]2(C)[C@H]3C(=O)C=C4[C@@H]5C[C@@](C)(C(=O)O)CC[C@]5(C)CC[C@@]4(C)[C@]3(C)CC[C@@H]12` [GLYCYRRHIZIN], the IC50 result (in data set [1]; in data set [2]; in data set [3] (cho-k1); on D(1A) dopamine receptor (cho); in data set [4]; against Adenosine receptor A3) was “Not Active” throughout. The IC50 result (at Histamine H2 receptor; in data set [5]; in data set [6]; in [7] (hela); against Cytochrome P450 2D6; in data set [8]) was “Not Active” each time. Further, the IC50 entry against Cytochrome P450 2E1 is reported as “Not Active”. In addition, the inhibition constant (Ki) entry (in [4]; in data set [6]; at Cytochrome P450 2D6; on Cytochrome P450 2E1) was “Not Active” throughout.

For `NCC[C@H](O)C(=O)N[C@@H]1C[C@H](N)[C@@H](O[C@H]2O[C@H](CN)[C@@H](O)[C@H](O)[C@H]2O)[C@H](O)[C@H]1O[C@H]1O[C@H](CO)[C@@H](O)[C@H](N)[C@H]1O` [AMIKACIN], the IC50 result (in data set [1]; in [2]; in data set [3] (cho-k1); at D(1A) dopamine receptor (cho); in data set [4]; on Adenosine receptor A3) was “Not Active” throughout. Moreover, the IC50 entry (on Histamine H2 receptor; in [5]; in [6]; in [7] (hela); against Cytochrome P450 2D6; in data set [8]) was “Not Active” each time. For the same compound, the IC50 entry on Cytochrome P450 2E1 is listed as “Not Active”. Also, the inhibition constant Ki result (in data set [4]; in data set [6]; on Cytochrome P450 2D6; on Cytochrome P450 2E1) was “Not Active” in each case.

In the case of `CN1C[C@H](C(=O)N[C@]2(C)O[C@@]3(O)[C@@H]4CCCN4C(=O)[C@H](Cc4ccccc4)N3C2=O)C=C2c3cccc4[nH]cc(c34)C[C@H]21` [ERGOTAMINE], the IC50 entry in data set [1] is “Not Active”; in [2] it was “Not Active”; in [3] (read-out: IC50) it was 3.46 nM; at D(1A) dopamine receptor (read-out: IC50), 1730 nM; in [4], “Not Active”; at Adenosine receptor A3, “Not Active”. In addition, the 50% inhibitory concentration (IC50) result is “Not Active” at Histamine H2 receptor; “Not Active” in data set [5]; “Not Active” in [6]; 2.04 nM in data set [7] (read-out: IC50); “Not Active” on Cytochrome P450 2D6; 8.21 nM in data set [8] (read-out: IC50). Further, the IC50 entry on Cytochrome P450 2E1 was “Not Active”. The Ki in [3] (read-out: Ki) was 2.2 nM; on D(1A) dopamine receptor (read-out: Ki) it was 864 nM; in [4], “Not Active”; in data set [6] it was “Not Active”; in data set [7] (read-out: Ki), 0.948 nM; on Cytochrome P450 2D6, “Not Active”. Besides, the results for the Ki (in data set [8] (read-out: Ki); on Cytochrome P450 2E1) were 4.55 nM and “Not Active”, respectively.
